Source: patent EP0187355A1, “Process for preparing beta-lactam antibiotics” (E.R. Squibb & Sons, Inc., priority 1981, dated 1982)
Counter-ions that a name gives are not always drawn.

Assays:
Assay in all cases: MIC, agar dilution
Format in all cases: cell-based
[1] = tested on: Serratia marcescens, 9783; settings: Serratia marcescens, 9783, 18 h, K-10 agar, 10^4 CFU, 37°C, read-out: M.I.C.
Description: (§1) The following methodology is used to determine the minimum inhibitory concentration (hereinafter referred to as MIC) of the […] of this invention.
(§2) The test organisms are grown in approximately 15-20 ml of Antibiotic Assay broth (Difco) by inoculating (in tubes) the broth with a loopful of the organism from a BHI (Difco) agar slant. The inoculated tubes are incubated at 37°C for 18 to 20 hours. These cultures are assumed to contain 10^9 colony forming units (hereinafter CFU) per milliliter. The cultures are diluted 1:100 to give a final inoculum level of 10^4 CFU; dilutions are made with K-10 broth^*.
(§3) The compounds are dissolved in the appropriate diluent at a concentration of 1000 µg/ml. Twofold dilutions are made in K-10 broth resulting in a range from 1000 µg/ml to 0.5 µg/ml. 1.5 ml of each dilution is placed into individual square petri dishes to which 13.5 ml of K-10 agar^** is added. The final drug concentration in the agar ranges from 100 µg/ml to 0.05 µg/ml. Organism growth control plates containing agar only are prepared and inoculated before and after the test plates. The organisms are applied to the agar surface of each plate with the Denley Multipoint Inoculator (which delivers approximately 0.001 ml of each organism) resulting in a final inoculum level of 10^4 CFU on the agar surface.
(§4) The plates are incubated at 37 °C for 18 hours and the MIC's are determined. The MIC is the lowest concentration of compound inhibiting growth of the organism.
(§5) The tables that follow are tabulated results obtained when the B-lactams of this invention are tested against various organisms. The number following each organism refers to the number of the organism in the collection of E. R. Squibb & Sons,.Inc., Princeton, New Jersey. […] The symbol "N.T." means not tested.

Shigella sonnei, 8449 = settings: Shigella sonnei, 8449, 18 h, K-10 agar, 10^4 CFU, 37°C
Description: as §1, §2, §3, §4, §5

Proteus rettgeri, 8479 = settings: Providencia rettgeri, K-10 agar, 10^4 CFU, 37°C, 18 hours, read-out: M.I.C.
Description: as §1, §2, §3, §4, §5

Escherichia coli, 10909 = settings: K-10 agar, 10^4 CFU, 37°C, 18 hours
Description: as §1, §2, §3, §4, §5

[2] = tested on: Staphylococcus aureus, 10165; settings: Staphylococcus aureus, 10165; K-10 agar, 10^4 CFU, 37°C, 18 hours; read-out: M.I.C.
Description: as §1, §2, §3, §4, §5

[3] = tested on: Staphylococcus aureus, 2400; settings: Staphylococcus aureus, 2400; K-10 agar, 10^4 CFU, 37°C, 18 hours; read-out: M.I.C.
Description: as §1, §2, §3, §4, §5

[4] = tested on: Klebsiella aerogenes, 10440; settings: K-10 agar, 10^4 CFU, 37°C, 18 hours, read-out: M.I.C.
Description: as §1, §2, §3, §4, §5

Escherichia coli, 10857 = settings: Escherichia coli, 10857, 18 h, K-10 agar, 10^4 CFU, 37°C
Description: as §1, §2, §3, §4, §5

Salmonella typhosa, 1195 = settings: Salmonella enterica, TYPHOSA, 18 h, K-10 agar, 10^4 CFU, 37°C
Description: as §1, §2, §3, §4, §5

Proteus mirabilis, 3855 = settings: Proteus mirabilis, 3855, 18 h, K-10 agar, 10^4 CFU, 37°C, read-out: M.I.C.
Description: as §1, §2, §3, §4, §5

Proteus vulgaris, 9416 = settings: K-10 agar, 10^4 CFU, 37°C, 18 hours, read-out: M.I.C.
Description: as §1, §2, §3, §4, §5

[5] = tested on: Staphylococcus aureus, 2399; settings: Staphylococcus aureus, 2399, 18 h, Staphylococcus aureus, 2399; K-10 agar, 10^4 CFU, 37°C, 18 hours; read-out: M.I.C.
Description: as §1, §2, §3, §4, §5

[6] = tested on: Pseudomonas aeruginosa, 8329; settings: K-10 agar, 10^4 CFU, 37°C, 18 hours, read-out: M.I.C.
Description: as §1, §2, §3, §4, §5

[7] = tested on: Streptococcus faecalis, 9011; settings: Enterococcus faecalis; Streptococcus faecalis, 9011; K-10 agar, 10^4 CFU, 37°C, 18 hours; read-out: M.I.C.
Description: as §1, §2, §3, §4, §5

[8] = tested on: Citrobacter freundii, 9518; settings: K-10 agar, 10^4 CFU, 37°C, 18 hours, read-out: M.I.C.
Description: as §1, §2, §3, §4, §5

[9] = tested on: Acinetobacter calcoaceticus, 8333; settings: Acinetobacter calcoaceticus, 8333, 18 h, K-10 agar, 10^4 CFU, 37°C, read-out: M.I.C.
Description: as §1, §2, §3, §4, §5

[10] = tested on: Pseudomonas aeruginosa, 9545; settings: Pseudomonas aeruginosa, 9545, 18 h, K-10 agar, 10^4 CFU, 37°C, read-out: M.I.C.
Description: as §1, §2, §3, §4, §5

Escherichia coli, 10896 = settings: K-10 agar, 10^4 CFU, 37°C, 18 hours
Description: as §1, §2, §3, §4, §5

[11] = tested on: Staphylococcus aureus, 1276; settings: Staphylococcus aureus, 1276; K-10 agar, 10^4 CFU, 37°C, 18 hours; read-out: M.I.C.
Description: as §1, §2, §3, §4, §5

[12] = tested on: Klebsiella pneumoniae, 9527; settings: Klebsiella pneumoniae, 9527, 18 h, K-10 agar, 10^4 CFU, 37°C, read-out: M.I.C.
Description: as §1, §2, §3, §4, §5

[13] = tested on: Enterobacter aerogenes, 10078; settings: Klebsiella aerogenes, 10078, 18 h, Enterobacter aerogenes, 10078; K-10 agar, 10^4 CFU, 37°C, 18 hours; read-out: M.I.C.
Description: as §1, §2, §3, §4, §5

Escherichia coli, 8294 = settings: Escherichia coli, 8294, 18 h, K-10 agar, 10^4 CFU, 37°C
Description: as §1, §2, §3, §4, §5

[14] = tested on: Streptococcus agalactiae, 9287; settings: Streptococcus agalactiae, 9287, 18 h, K-10 agar, 10^4 CFU, 37°C, read-out: M.I.C.
Description: as §1, §2, §3
(§6) The MIC is the lowest concentration of compound inhibiting growth of the organism.
(§7) The number following each organism refers to the number of the organism in the collection of E. R. Squibb & Sons,.Inc., Princeton, New Jersey. […] The symbol "N.T." means not tested.

[15] = tested on: Enterobacter cloacae, 8236; settings: Enterobacter cloacae, 8236, 18 h, K-10 agar, 10^4 CFU, 37°C
Description: as §1, §2, §3, §6, §7

Micrococcus luteus, 2495 = settings: Micrococcus luteus, 2495, 18 h, K-10 agar, 10^4 CFU, 37°C, read-out: M.I.C.
Description: as §1, §2, §3, §6, §7

CCN1CCN(C(=O)NC(C(=O)NC2C(=O)N(S(=O)(=O)O)C2C)c2ccccc2)C(=O)C1=O (stereo not drawn) [Example 12, [3S-[3α(R*),4β]]-3-[[[[(4-ethyl-2,3-dioxo-1-piperazinyl)carbonyl]amino]phenylacetyl]-amino]-4-methyl-2-oxo-1-azetidinesulfonic acid, potassium salt]
MIC [1]: 1.6 µg/mL
MIC (Shigella sonnei, 8449): 0.8 µg/mL
MIC (Proteus rettgeri, 8479): 0.4 µg/mL
MIC (Escherichia coli, 10909): 0.1 µg/mL
MIC [2]: > 100 µg/mL
MIC [3]: 50 µg/mL
MIC [4]: 1.6 µg/mL
MIC (Escherichia coli, 10857): < 0.05 µg/mL
MIC (Salmonella typhosa, 1195): 0.2 µg/mL
MIC (Proteus mirabilis, 3855): 0.4 µg/mL
MIC (Proteus vulgaris, 9416): < 0.05 µg/mL
MIC [5]: 50 µg/mL
MIC [6]: 12.5 µg/mL
MIC [7]: > 100 µg/mL
MIC [8]: 1.6 µg/mL
MIC [9]: 12.5 µg/mL
MIC [10]: 0.8 µg/mL
MIC (Escherichia coli, 10896): 1.6 µg/mL
MIC [11]: 25 µg/mL
MIC [12]: 0.1 µg/mL
MIC [13]: 3.1 µg/mL
MIC (Escherichia coli, 8294): 1.6 µg/mL
MIC [14]: 6.3 µg/mL
MIC [15]: 1.6 µg/mL
MIC (Micrococcus luteus, 2495): 6.3 µg/mL

CC1C(NC(=O)C(NC(=O)N2CCN(N=Cc3ccco3)C2=O)c2ccccc2)C(=O)N1S(=O)(=O)O (stereo not drawn) [Example 11, [3S-[3α(R*),4β]]-3-[[[[[3-[(2-furanyl-methylene)amino]-2-oxo-1-imidazolidinyl]-carbonyl]amino]phenylacetyl]amino]-4-methyl-2-oxo-1-azetidinesulfonic acid, potassium salt]
MIC [1]: 0.8 µg/mL
MIC (Shigella sonnei, 8449): 0.4 µg/mL
MIC (Proteus rettgeri, 8479): 0.4 µg/mL
MIC (Escherichia coli, 10909): 0.1 µg/mL
MIC [2]: > 100 µg/mL
MIC [3]: 25 µg/mL
MIC [4]: 0.8 µg/mL
MIC (Escherichia coli, 10857): < 0.05 µg/mL
MIC (Salmonella typhosa, 1195): 0.2 µg/mL
MIC (Proteus mirabilis, 3855): 0.4 µg/mL
MIC (Proteus vulgaris, 9416): < 0.05 µg/mL
MIC [5]: 25 µg/mL
MIC [6]: 12.5 µg/mL
MIC [7]: > 100 µg/mL
MIC [8]: 0.8 µg/mL
MIC [9]: 12.5 µg/mL
MIC [10]: 1.6 µg/mL
MIC (Escherichia coli, 10896): 0.4 µg/mL
MIC [11]: 25 µg/mL
MIC [12]: 0.1 µg/mL
MIC [13]: 1.6 µg/mL
MIC (Escherichia coli, 8294): 1.6 µg/mL
MIC [14]: 0.4 µg/mL
MIC [15]: 0.8 µg/mL
MIC (Micrococcus luteus, 2495): 6.3 µg/mL

CC1C(NC(=O)Cc2ccccc2)C(=O)N1S(=O)(=O)O (racemic) [Example 4, (cis)-4-Methyl-2-oxo-3-[(phenylacetyl)amino]-1-azetidinesulfonic acid, potassium salt]
MIC [1]: > 100 µg/mL
MIC (Shigella sonnei, 8449): 100 µg/mL
MIC (Proteus rettgeri, 8479): 100 µg/mL
MIC (Escherichia coli, 10909): 50 µg/mL
MIC [2]: 100 µg/mL
MIC [3]: 50 µg/mL
MIC [4]: > 100 µg/mL
MIC (Escherichia coli, 10857): 50 µg/mL
MIC (Salmonella typhosa, 1195): 100 µg/mL
MIC (Proteus mirabilis, 3855): > 100 µg/mL
MIC (Proteus vulgaris, 9416): > 100 µg/mL
MIC [5]: 25 µg/mL
MIC [6]: > 100 µg/mL
MIC [7]: > 100 µg/mL
MIC [8]: > 100 µg/mL
MIC [9]: > 100 µg/mL
MIC [10]: > 100 µg/mL
MIC (Escherichia coli, 10896): 100 µg/mL
MIC [11]: 25 µg/mL
MIC [12]: 100 µg/mL
MIC [13]: > 100 µg/mL
MIC (Escherichia coli, 8294): 100 µg/mL
MIC [14]: 12.5 µg/mL
MIC [15]: > 100 µg/mL
MIC (Micrococcus luteus, 2495): 50 µg/mL
